Data: US20120302503A1, “PEPTIDES FOR PREVENTING OR TREATING A DISEASE OR DISORDER ASSOCIATED WITH CBP OR p300 MISREGULATION, AND METHODS FOR USE AND IDENTIFICATION THEREOF” (AML Therapeutics, LLC, priority 2011, published 2012)
Where two headings read alike, the source gives them in different places. Square brackets hold non-standard residues; d marks the D form. Peptide text beside a SMILES is read from it. d(pS) = N[C@H](COP(=O)(O)O)C(=O)O; pS = N[C@@H](COP(=O)(O)O)C(=O)O; dNle = CCCC[C@@H](N)C(=O)O

Tested on: THP-1 cell line
Assay: Cell proliferation assay (Promega Cell Titer-Glo) using cell line THP-1
Format: cell-based
Procedure: To determine the in vitro IC50 of two peptides, and a positive control, cisplatin, against the THP-1 cell line, cell growth is determined using Promega's Cell Titer-Glo® assay. THP-1 tumor cells are placed in a 96-well microculture plate (Costar white, flat bottom #3917) at 20,000 cells per well, in a total volume of 90 μL/well. After 24 hours of incubation in a humidified incubator at 37 C with 5% CO2 and 95% air, 10 μL of 10×, serially diluted test agents in growth medium are added to each well. […] 100 μL of Cell Titer-Glo® reagent are added to each well. The plate is shaken for 2 minutes and then left to equilibrate for 10 minutes before determining luminescence on a Tecan GENios microplate reader. Percent inhibition of cell growth is calculated relative to untreated control wells. All tests are performed in duplicate at each concentration level. The IC50 value for the test agents is estimated using Prism 3.03 by curve-fitting the data using the following four parameter-logistic equation: where Top is the maximal % of control absorbance, Bottom is the minimal % of control absorbance at the highest agent concentration, Y is the % of control absorbance, X is the agent concentration, IC50 is the concentration of agent that inhibits cell growth by 50% compared to the control cells, and n is the slope of the curve.

SMILES | IC50 (24 h) [µM] | IC50 (THP-1 tumor cells, 96 total hours of culture, Cell Titer-Glo luminescence, Table 1, read-out: IC50 values) [µM] | IC50 (THP-1 tumor cells, 96 total hours of culture, Cell Titer-Glo luminescence, Table 2, read-out: IC50 values) [µM]
N.N.[Cl][Pt][Cl] [Cisplatin, cisplatin, reference compound] |  | 1.6 | 1.6
CC[C@@H](C)[C@@H](NC(=O)[C@@H](CC(C)C)NC(=O)[C@@H](CC(N)=O)NC(=O)[C@@H](CC(=O)O)NC(=O)[C@@H](CC(C)C)NC(=O)[C@@H](CCSC)NC(=O)[C@@H](CO)NC(=O)[C@H](NC(=O)[C@@H](CCC(=O)O)NC(=O)[C@@H](CC(N)=O)NC(=O)[C@@H](CCC(=O)O)NC(=O)[C@@H](CC(C)C)NC(=O)CNC(=O)[C@@H](CCCNC(=N)N)NC(=O)[C@@H](CCCNC(=N)N)NC(=O)[C@@H](CCCNC(=N)N)NC(=O)[C@@H](CCCNC(=N)N)NC(=O)[C@@H](CCCNC(=N)N)NC(=O)[C@@H](CCCNC(=N)N)NC(=O)[C@@H](CCCNC(=N)N)NC(=O)[C@@H](CCCNC(=N)N)NC(=O)[C@H](N)CCCNC(=N)N)[C@H](C)O)C(=O)N[C@H](CCCCN)C(=O)N[C@H](CCCNC(=N)N)C(=O)N[C@H](Cc1ccc(O)cc1)C(=O)N[C@H](COP(=O)(O)O)C(=O)NCC(N)=O [SEQ ID NO: 13, dR dR dR dR dR dR dR dR dR G dL dE dN dE dT dS dM dL dD dN dL dI dK dR dY dpS G amide] (H-[dR][dR][dR][dR][dR][dR][dR][dR][dR]G[dL][dE][dN][dE][dT][dS][dM][dL][dD][dN][dL][dI][dK][dR][dY][d(pS)]G-NH2; N-terminus assumed) | 17.5 |  | 
CC[C@@H](C)[C@@H](NC(=O)[C@@H](CCCCN)NC(=O)[C@@H](CCC(=O)O)NC(=O)[C@@H](CC(C)C)NC(=O)[C@@H](CCC(=O)O)NC(=O)[C@@H](CC(C)C)NC(=O)[C@@H](CC(C)C)NC(=O)[C@@H](CC(C)C)NC(=O)[C@@H](CCSC)NC(=O)[C@@H](CO)NC(=O)[C@H](NC(=O)[C@@H](CCC(=O)O)NC(=O)[C@@H](CC(N)=O)NC(=O)[C@@H](CCC(=O)O)NC(=O)[C@@H](CC(C)C)NC(=O)CNC(=O)[C@@H](Cc1ccc(O)cc1)NC(=O)CNC(=O)[C@@H](CCCNC(=N)N)NC(=O)[C@@H](CCCCN)NC(=O)[C@@H](CCCCN)NC(=O)[C@@H](CCCNC(=N)N)NC(=O)[C@@H](CCCNC(=N)N)NC(=O)[C@@H](CCC(N)=O)NC(=O)[C@@H](CCCNC(=N)N)NC(=O)[C@@H](CCCNC(=N)N)NC(=O)[C@H](N)CCCNC(=N)N)[C@H](C)O)C(=O)N[C@H](CCCNC(=N)N)C(N)=O [SEQ ID NO: 16, dR dR dR dQ dR dR dK dK dR G dY G dL dE dN dE dT dS dM dL dL dL dE dL dE dK dI dR amide] (H-[dR][dR][dR][dQ][dR][dR][dK][dK][dR]G[dY]G[dL][dE][dN][dE][dT][dS][dM][dL][dL][dL][dE][dL][dE][dK][dI][dR]-NH2; N-terminus assumed) | 21.6 |  | 

The remaining molecules from weak to strong by IC50 (24 h), led by results:

IC50 (24 h) [µM] | SMILES | IC50 (THP-1 tumor cells, 96 total hours of culture, Cell Titer-Glo luminescence, Table 1, read-out: IC50 values) [µM] | IC50 (THP-1 tumor cells, 96 total hours of culture, Cell Titer-Glo luminescence, Table 2, read-out: IC50 values) [µM]
14.1 | CCCC[C@@H](NC(=O)[C@@H](CCSC)NC(=O)[C@@H](CO)NC(=O)[C@H](NC(=O)[C@@H](CCC(=O)O)NC(=O)[C@@H](CC(N)=O)NC(=O)[C@@H](CCC(=O)O)NC(=O)[C@@H](CC(C)C)NC(=O)CNC(=O)[C@@H](CCCNC(=N)N)NC(=O)[C@@H](CCCNC(=N)N)NC(=O)[C@@H](CCCNC(=N)N)NC(=O)[C@@H](CCCNC(=N)N)NC(=O)[C@@H](CCCNC(=N)N)NC(=O)[C@@H](CCCNC(=N)N)NC(=O)[C@@H](CCCNC(=N)N)NC(=O)[C@@H](CCCNC(=N)N)NC(=O)[C@H](N)CCCNC(=N)N)[C@H](C)O)C(=O)N[C@H](CC(=O)O)C(=O)N[C@H](CC(N)=O)C(=O)N[C@H](CC(C)C)C(=O)N[C@@H](C(=O)N[C@H](CCCCN)C(=O)N[C@H](CCCNC(=N)N)C(=O)N[C@H](Cc1ccc(O)cc1)C(=O)N[C@@H](COP(=O)(O)O)C(=O)NCC(N)=O)[C@H](C)CC [SEQ ID NO: 15, dR dR dR dR dR dR dR dR dR G dL dE dN dE dT dS dM dNIe dD dN dL dI dK dR dY pS G amide] (H-[dR][dR][dR][dR][dR][dR][dR][dR][dR]G[dL][dE][dN][dE][dT][dS][dM][dNle][dD][dN][dL][dI][dK][dR][dY][pS]G-NH2; N-terminus assumed) |  | 
13.9 | CC[C@@H](C)[C@@H](NC(=O)[C@@H](CC(C)C)NC(=O)[C@@H](CC(N)=O)NC(=O)[C@@H](CC(=O)O)NC(=O)[C@@H](CC(C)C)NC(=O)[C@@H](CCSC)NC(=O)[C@@H](CO)NC(=O)[C@H](NC(=O)[C@@H](CCC(=O)O)NC(=O)[C@@H](CC(N)=O)NC(=O)[C@@H](CCC(=O)O)NC(=O)[C@@H](CC(C)C)NC(=O)CNC(=O)[C@@H](CCCNC(=N)N)NC(=O)[C@@H](CCCNC(=N)N)NC(=O)[C@@H](CCCNC(=N)N)NC(=O)[C@@H](CCCNC(=N)N)NC(=O)[C@@H](CCCNC(=N)N)NC(=O)[C@@H](CCCNC(=N)N)NC(=O)[C@@H](CCCNC(=N)N)NC(=O)[C@@H](CCCNC(=N)N)NC(=O)[C@H](N)CCCNC(=N)N)[C@H](C)O)C(=O)N[C@H](CCCCN)C(=O)N[C@H](CCCNC(=N)N)C(=O)N[C@H](Cc1ccc(O)cc1)C(=O)N[C@@H](COP(=O)(O)O)C(=O)NCC(N)=O [SEQ ID NO: 14, dR dR dR dR dR dR dR dR dR G dL dE dN dE dT dS dM dL dD dN dL dI dK dR dY pS G amide] (H-[dR][dR][dR][dR][dR][dR][dR][dR][dR]G[dL][dE][dN][dE][dT][dS][dM][dL][dD][dN][dL][dI][dK][dR][dY][pS]G-NH2; N-terminus assumed) |  | 
